In test [1] the test system is antibodies in sera from SARS patients (sera 1a, 1b, 2, 6, 37, 62, London, SARS-yellow, SARS-green). In kind it is binding, human. Details: Binding of serum 6 to linear peptides of protein X1 of SARS-CoV Urbani / Binding of serum 37 to linear peptides of protein X1 of SARS-CoV Urbani / Binding of serum 6 to looped/cyclic peptide (PEPSCAN-ELISA) / Binding of serum 37 to looped/cyclic peptide (PEPSCAN-ELISA) / Binding of serum 37 to looped/cyclic peptides of protein X1 of SARS-CoV Urbani / Binding of serum 6 to linear peptides of protein X2 / Binding of serum 37 to linear peptides of protein X2 / Binding of serum 37 to looped/cyclic peptides of protein X2 of SARS-CoV Urbani / Binding of serum 6 to linear peptides of protein M of SARS-CoV Urbani / Binding of serum 37 to linear peptides of protein M of SARS-CoV Urbani / Binding of serum 6 to looped/cyclic peptides of protein M of SARS-CoV Urbani / Binding of serum 37 to looped/cyclic peptides of protein M of SARS-CoV Urbani / Binding of serum 6 to linear peptides of protein X3 of SARS-CoV Urbani / Binding of serum 37 to linear peptides of protein X3 of SARS-CoV Urbani / Binding of serum 37 to looped/cyclic peptides of protein X3 of SARS-CoV Urbani / Binding of serum 6 to linear peptides of protein X4 of SARS-CoV Urbani / Binding of serum 37 to linear peptides of protein X4 of SARS-CoV Urbani / Binding of serum 37 to looped/cyclic peptides of protein X4 of SARS-CoV Urbani / Binding of serum 6 to linear peptides of protein X5 of SARS-CoV Urbani / Binding of serum 37 to linear peptides of protein X5 of SARS-CoV Urbani / Binding of serum 37 to looped/cyclic peptides of protein X5 of SARS-CoV Urbani / Binding of serum 6 to linear peptides of protein N of SARS-CoV Urbani / Binding of serum 37 to linear peptides of protein N of SARS-CoV Urbani / Binding of serum 6 to linear peptide (PEPSCAN-ELISA) / Binding of serum 1a to looped/cyclic peptides of protein N of SARS-CoV Urbani / Binding of serum 1b to looped/cyclic peptides of protein N of SARS-CoV Urbani / Binding of serum 2 to looped/cyclic peptides of protein N of SARS-CoV Urbani / Binding of serum 6 to looped/cyclic peptides of protein N of SARS-CoV Urbani / Binding of serum 37 to looped/cyclic peptides of protein N of SARS-CoV Urbani / Binding of serum 62 to looped/cyclic peptides of protein N of SARS-CoV Urbani / Binding of serum London to looped/cyclic peptides of protein N of SARS-CoV Urbani / Binding of serum SARS-green to looped/cyclic peptides of protein N of SARS-CoV Urbani: unit not given here.

The test system of test [2] is control sera (pooled serum of ten healthy LUMC hospital workers; commercial negative donor pooled serum from the Dutch bloodbank). In kind it is binding, human. Details: Binding of Control serum LUMC to linear peptides / Binding of Control serum Blood-bank to linear peptides / Binding of Control serum LUMC to looped peptides / Binding of Control Serum Blood-Bank to Looped peptides / Binding of Control serum LUMC to linear peptides of the protein M of SARS-CoV Urbani / Binding of Control serum Blood-bank to linear peptides of the protein M of SARS-CoV Urbani / Binding of Control serum LUMC to looped peptides of the protein M of SARS-CoV Urbani / Binding of Control Serum Blood-Bank to Looped peptides of the protein M of SARS-CoV Urbani: unit not given here.

Test [3] relates to rabbit serum obtained by immunizing a rabbit with the SARS-CoV strain Frankfurt 1. The test is classed as binding. Details: Binding of a rabbit serum to linear peptides / Binding of a rabbit serum to looped peptides / Rabbit serum linear peptides / Rabbit serum looped peptides / Binding of a rabbit serum to linear peptides of protein N of SARS-CoV Urbani (Rabbit serum linear peptides) / Binding of a rabbit serum to looped/cyclic peptides of protein N of SARS-CoV Urbani (Rabbit serum looped peptides): unit not given here.

Experimental findings from patent publication US20070128217A1 (priority 2003, published 2007) are described below.

Regarding RWQLALYKGFQFICN, in test [1], the “Binding of serum 1a to linear peptides of protein X1 of SARS-CoV Urbani” value was determined as 0.7, the “Binding of serum 1a to looped/cyclic peptide (PEPSCAN-ELISA)” value is reported as 0.6, the “Binding of serum 1b to linear peptides of protein X1 of SARS-CoV Urbani” value is given as 0.5 and the “Binding of serum 1b to looped/cyclic peptide (PEPSCAN-ELISA)” value is listed as 0.4. In addition, in test [1], the “Binding of serum 2 to linear peptides of protein X1 of SARS-CoV Urbani” value is given as 0.5, the “Binding of serum 2 to looped/cyclic peptide (PEPSCAN-ELISA)” value was 0.5, the “Binding of serum 6 to linear peptides of protein X1 of SARS-CoV Urbani” value was found to be 0.4 and the “Binding of serum 6 to looped/cyclic peptide (PEPSCAN-ELISA)” value is on record as 0.9. In test [1], the “Binding of serum 37 to linear peptides of protein X1 of SARS-CoV Urbani” value stood at 0.6, the “Binding of serum 37 to looped/cyclic peptide (PEPSCAN-ELISA)” value is given as 0.6, the “Binding of serum 62 to linear peptides of protein X1 of SARS-CoV Urbani” value was 0.5 and the “Binding of serum 62 to looped/cyclic peptide (PEPSCAN-ELISA)” value is recorded as 0.6. Besides, in test [1], the “Binding of serum London to linear peptides of protein X1 of SARS-CoV Urbani” value stood at 0.3, the “Binding of serum London to looped/cyclic peptide (PEPSCAN-ELISA)” value amounted to 1.4, the “Binding of serum SARS-green to linear peptides of protein X1 of SARS-CoV Urbani” value worked out at 0.3 and the “Binding of serum SARS-green to looped/cyclic peptide (PEPSCAN-ELISA)” value was 0.3. In test [1], the “Binding of serum SARS-yellow to linear peptides of protein X1 of SARS-CoV Urbani” value was 0.2 and the “Binding of serum SARS-yellow to looped/cyclic peptide (PEPSCAN-ELISA)” value was 0.6. Besides, in test [2], the “Binding of Control Serum Blood-Bank to Looped peptides” value stood at 0.6, the “Binding of Control serum Blood-bank to linear peptides” value is listed as 0.6, the “Binding of Control serum LUMC to linear peptides” value is recorded as 0.4 and the “Binding of Control serum LUMC to looped peptides” value was determined as 0.6. Also, in test [3], the “Binding of a rabbit serum to linear peptides” value worked out at 0.3 and the “Binding of a rabbit serum to looped peptides” value is reported as 0.9.
Take RYNTRGNTYSTAWLC: in test [1], the “Binding of serum 1a to linear peptides of protein X5 of SARS-CoV Urbani” value is listed as 0.8, the “Binding of serum 1a to looped/cyclic peptides of protein X5 of SARS-CoV Urbani” value was 0.5, the “Binding of serum 1b to linear peptides of protein X5 of SARS-CoV Urbani” value is recorded as 0.4 and the “Binding of serum 1b to looped/cyclic peptides of protein X5 of SARS-CoV Urbani” value was 0.0. In addition, in test [1], the “Binding of serum 2 to linear peptides of protein X5 of SARS-CoV Urbani” value was found to be 0.5, the “Binding of serum 2 to looped/cyclic peptides of protein X5 of SARS-CoV Urbani” value is reported as 0.3, the “Binding of serum 6 to linear peptides of protein X5 of SARS-CoV Urbani” value is on record as 0.9 and the “Binding of serum 6 to looped/cyclic peptides of protein X5 of SARS-CoV Urbani” value amounted to 0.1. Moreover, in test [1], the “Binding of serum 37 to linear peptides of protein X5 of SARS-CoV Urbani” value is 0.4, the “Binding of serum 37 to looped/cyclic peptides of protein X5 of SARS-CoV Urbani” value worked out at 0.0, the “Binding of serum 62 to linear peptides of protein X5 of SARS-CoV Urbani” value is 0.7 and the “Binding of serum 62 to looped/cyclic peptides of protein X5 of SARS-CoV Urbani” value is reported as 0.2. Moreover, in test [1], the “Binding of serum London to linear peptides of protein X5 of SARS-CoV Urbani” value was determined as 1.0, the “Binding of serum London to looped/cyclic peptides of protein X5 of SARS-CoV Urbani” value stood at 0.2, the “Binding of serum SARS-green to linear peptides of protein X5 of SARS-CoV Urbani” value stood at 0.6 and the “Binding of serum SARS-green to looped/cyclic peptides of protein X5 of SARS-CoV Urbani” value was found to be 0.1. In test [1], the “Binding of serum SARS-yellow to linear peptides of protein X5 of SARS-CoV Urbani” value stood at 0.2 and the “Binding of serum SARS-yellow to looped/cyclic peptides of protein X5 of SARS-CoV Urbani” value is 0.6. Besides, in test [2], the “Binding of Control Serum Blood-Bank to Looped peptides” value amounted to 0.0, the “Binding of Control serum Blood-bank to linear peptides” value is listed as 0.7, the “Binding of Control serum LUMC to linear peptides” value is recorded as 0.3 and the “Binding of Control serum LUMC to looped peptides” value is given as 0.1. In test [3], the “Rabbit serum linear peptides” value was 0.7 and the “Rabbit serum looped peptides” value amounted to 0.0.
For SCELYHYQECVRGTT, in test [1], the “Binding of serum 1a to linear peptides of protein X4 of SARS-CoV Urbani” value came out at 0.8, the “Binding of serum 1a to looped/cyclic peptides of protein X4 of SARS-CoV Urbani” value was 0.5, the “Binding of serum 1b to linear peptides of protein X4 of SARS-CoV Urbani” value was 0.6 and the “Binding of serum 1b to looped/cyclic peptides of protein X4 of SARS-CoV Urbani” value is 0.4. In test [1], the “Binding of serum 2 to linear peptides of protein X4 of SARS-CoV Urbani” value came to 0.4, the “Binding of serum 2 to looped/cyclic peptides of protein X4 of SARS-CoV Urbani” value is reported as 0.5, the “Binding of serum 6 to linear peptides of protein X4 of SARS-CoV Urbani” value came to 0.5 and the “Binding of serum 6 to looped/cyclic peptides of protein X4 of SARS-CoV Urbani” value was found to be 0.5. In addition, in test [1], the “Binding of serum 37 to linear peptides of protein X4 of SARS-CoV Urbani” value amounted to 0.7, the “Binding of serum 37 to looped/cyclic peptides of protein X4 of SARS-CoV Urbani” value is listed as 0.6, the “Binding of serum 62 to linear peptides of protein X4 of SARS-CoV Urbani” value is 0.6 and the “Binding of serum 62 to looped/cyclic peptides of protein X4 of SARS-CoV Urbani” value came out at 0.5. Moreover, in test [1], the “Binding of serum London to linear peptides of protein X4 of SARS-CoV Urbani” value worked out at 0.8, the “Binding of serum London to looped/cyclic peptides of protein X4 of SARS-CoV Urbani” value is listed as 0.3, the “Binding of serum SARS-green to linear peptides of protein X4 of SARS-CoV Urbani” value came to 0.5 and the “Binding of serum SARS-green to looped/cyclic peptides of protein X4 of SARS-CoV Urbani” value is 0.2. Moreover, in test [1], the “Binding of serum SARS-yellow to linear peptides of protein X4 of SARS-CoV Urbani” value was found to be 0.2 and the “Binding of serum SARS-yellow to looped/cyclic peptides of protein X4 of SARS-CoV Urbani” value is given as 0.2. Also, in test [2], the “Binding of Control Serum Blood-Bank to Looped peptides” value stood at 0.6, the “Binding of Control serum Blood-bank to linear peptides” value turned out to be 0.5, the “Binding of Control serum LUMC to linear peptides” value stood at 0.3 and the “Binding of Control serum LUMC to looped peptides” value is on record as 0.8. Besides, in test [3], the “Rabbit serum linear peptides” value amounted to 0.4 and the “Rabbit serum looped peptides” value amounted to 0.0.
As to SFRLFARTRSMWSFN, in test [1], the “Binding of serum 1a to linear peptides of protein M of SARS-CoV Urbani” value amounted to 0.8, the “Binding of serum 1a to looped/cyclic peptides of protein M of SARS-CoV Urbani” value is 0.6, the “Binding of serum 1b to linear peptides of protein M of SARS-CoV Urbani” value is recorded as 0.7 and the “Binding of serum 1b to looped/cyclic peptides of protein M of SARS-CoV Urbani” value amounted to 0.5. Further, in test [1], the “Binding of serum 2 to linear peptides of protein M of SARS-CoV Urbani” value is given as 0.5, the “Binding of serum 2 to looped/cyclic peptides of protein M of SARS-CoV Urbani” value was found to be 0.5, the “Binding of serum 6 to linear peptides of protein M of SARS-CoV Urbani” value was 0.2 and the “Binding of serum 6 to looped/cyclic peptides of protein M of SARS-CoV Urbani” value is listed as 0.8. For the same sequence, in test [1], the “Binding of serum 37 to linear peptides of protein M of SARS-CoV Urbani” value was found to be 0.8, the “Binding of serum 37 to looped/cyclic peptides of protein M of SARS-CoV Urbani” value is listed as 0.6, the “Binding of serum 62 to linear peptides of protein M of SARS-CoV Urbani” value is 0.7 and the “Binding of serum 62 to looped/cyclic peptides of protein M of SARS-CoV Urbani” value is given as 0.6. Besides, in test [1], the “Binding of serum London to linear peptides of protein M of SARS-CoV Urbani” value is 0.3, the “Binding of serum London to looped/cyclic peptides of protein M of SARS-CoV Urbani” value is reported as 0.2, the “Binding of serum SARS-green to linear peptides of protein M of SARS-CoV Urbani” value was 0.4 and the “Binding of serum SARS-green to looped/cyclic peptides of protein M of SARS-CoV Urbani” value was 0.3. For the same sequence, in test [1], the “Binding of serum SARS-yellow to linear peptides of protein M of SARS-CoV Urbani” value was found to be 0.1 and the “Binding of serum SARS-yellow to looped/cyclic peptides of protein M of SARS-CoV Urbani” value was 0.5. Further, in test [2], the “Binding of Control Serum Blood-Bank to Looped peptides of the protein M of SARS-CoV Urbani” value stood at 0.7, the “Binding of Control serum Blood-bank to linear peptides of the protein M of SARS-CoV Urbani” value is recorded as 0.6, the “Binding of Control serum LUMC to linear peptides of the protein M of SARS-CoV Urbani” value is recorded as 0.4 and the “Binding of Control serum LUMC to looped peptides of the protein M of SARS-CoV Urbani” value was determined as 0.6. In test [3], the “Rabbit serum linear peptides” value is recorded as 0.8 and the “Rabbit serum looped peptides” value is 0.2.
